PMC12527977, “Discovery of a novel tetrapeptide as glucose homeostasis modulator with bifunctionalities of targeting DPP‐IV and microbiota” (iMeta, 2025)
Where two headings read alike, the source gives them in different places. Where a SMILES comes first, the peptide text is derived from it. Where no end group is shown, it is not given here.

Assays:
[1] = target: T1, DPP-IV (Homo sapiens, UniProt P27487); assay: DPP-IV inhibitory activity of peptides (DPP-IV-Glo Protease Assay Kit); type: biochemical; design: purchased QiZheng Biotech (Shanghai, China) IBDPP0901; conditions: for DPP-IV inhibitory activity: DPP-IV-Glo Protease Assay Kit, control = 0, in % (unit assumed); as to DPP-IV inhibitory activity: test concentration or dose not given here
Target sequence in this assay (P27487 whole entry): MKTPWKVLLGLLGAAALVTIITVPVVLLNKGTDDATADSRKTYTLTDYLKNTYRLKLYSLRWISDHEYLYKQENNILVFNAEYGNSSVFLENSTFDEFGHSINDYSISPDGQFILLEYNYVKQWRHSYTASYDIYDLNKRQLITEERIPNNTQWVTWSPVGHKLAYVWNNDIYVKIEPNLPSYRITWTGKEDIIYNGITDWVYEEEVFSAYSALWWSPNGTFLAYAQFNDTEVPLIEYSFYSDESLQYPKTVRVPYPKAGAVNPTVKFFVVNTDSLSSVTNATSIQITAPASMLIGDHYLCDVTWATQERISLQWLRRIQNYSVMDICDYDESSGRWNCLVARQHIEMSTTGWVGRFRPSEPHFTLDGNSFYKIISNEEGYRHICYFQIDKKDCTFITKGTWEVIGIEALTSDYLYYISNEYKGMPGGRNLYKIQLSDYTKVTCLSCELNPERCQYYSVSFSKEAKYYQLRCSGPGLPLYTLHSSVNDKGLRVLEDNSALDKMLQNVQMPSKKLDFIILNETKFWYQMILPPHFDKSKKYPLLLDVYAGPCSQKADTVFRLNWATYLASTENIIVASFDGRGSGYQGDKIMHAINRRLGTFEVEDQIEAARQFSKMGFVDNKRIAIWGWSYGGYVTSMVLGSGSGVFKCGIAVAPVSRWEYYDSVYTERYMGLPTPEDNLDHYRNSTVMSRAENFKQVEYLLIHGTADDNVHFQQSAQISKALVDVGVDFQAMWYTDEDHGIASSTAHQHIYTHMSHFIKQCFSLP

[2] = target: dipeptidyl peptidase IV (UniProt P27487)
[3] = target: T1, DPP-IV; assay: Surface plasmon resonance (Biacore 8K, CM5 chip, 25 °C); type: binding; design: purchased QiZheng Biotech (Shanghai, China) IBDPP0901

Chain of dipeptidyl peptidase IV (P27487 41-765): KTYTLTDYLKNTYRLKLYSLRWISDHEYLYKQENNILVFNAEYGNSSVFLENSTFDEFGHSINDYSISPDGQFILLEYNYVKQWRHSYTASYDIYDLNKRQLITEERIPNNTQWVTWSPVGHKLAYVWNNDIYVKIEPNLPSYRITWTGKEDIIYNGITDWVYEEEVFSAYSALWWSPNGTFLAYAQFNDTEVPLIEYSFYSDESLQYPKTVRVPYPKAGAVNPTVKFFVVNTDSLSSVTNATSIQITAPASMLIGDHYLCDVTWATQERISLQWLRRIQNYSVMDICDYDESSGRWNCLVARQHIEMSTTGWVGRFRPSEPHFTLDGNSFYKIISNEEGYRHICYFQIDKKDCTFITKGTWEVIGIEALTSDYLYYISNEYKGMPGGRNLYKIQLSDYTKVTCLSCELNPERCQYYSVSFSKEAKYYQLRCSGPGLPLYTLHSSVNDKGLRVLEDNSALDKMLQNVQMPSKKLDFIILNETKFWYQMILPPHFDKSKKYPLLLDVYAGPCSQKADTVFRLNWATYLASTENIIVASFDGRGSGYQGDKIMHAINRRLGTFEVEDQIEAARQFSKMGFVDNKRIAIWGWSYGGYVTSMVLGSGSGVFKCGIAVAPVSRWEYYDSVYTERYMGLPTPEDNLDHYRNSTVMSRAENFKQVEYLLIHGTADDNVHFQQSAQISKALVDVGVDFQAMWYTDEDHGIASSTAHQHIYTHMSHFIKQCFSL

CC(C)C[C@H](NC(=O)[C@@H](N)Cc1c[nH]c2ccccc12)C(=O)N[C@@H](CCC(=O)O)C(=O)O [WLE] (H-Trp-Leu-Glu-OH)
DPP-IV inhibitory activity ([1]; replicate 1, sheet S2F): 21.3239 | DPP-IV inhibitory activity ([1]; replicate 2, sheet S2F): 16.4075 | DPP-IV inhibitory activity ([1]; replicate 3, sheet S2F): 17.3019 | IC50 ([1]; Table S3, read-out: IC50): 2400 µM

YNL (peptide)
IC50 of inhibition of DPP-IV activity in vitro [2]: 140 µM

PSSQQ [PSSQQ]
Kd [3]: 37000 µM | IC50 [1]: 730 µM | DPP-IV inhibitory activity ([1]; replicate 1, […]): 8.036 | DPP-IV inhibitory activity ([1]; replicate 2, […]): 8.558 | DPP-IV inhibitory activity ([1]; replicate 3, […]): 22.2643

CC(C)C[C@H](NC(=O)[C@H](CC(N)=O)NC(=O)[C@@H](N)Cc1ccc(O)cc1)C(=O)O [YNL] (H-Tyr-Asn-Leu-OH)
DPP-IV inhibitory activity ([1]; replicate 1, […]): 24.2295 | DPP-IV inhibitory activity ([1]; replicate 2, […]): 23.675 | DPP-IV inhibitory activity ([1]; replicate 3, […]): 21.7871 | IC50 ([1]; Table S3, read-out: IC50): 140 µM

CC(C)C[C@H](NC(=O)[C@@H](N)Cc1ccccc1)C(=O)N[C@@H](CCC(N)=O)C(=O)O [FLQ] (H-Phe-Leu-Gln-OH)
DPP-IV inhibitory activity ([1]; replicate 1, sheet S2F): 25.2277 | DPP-IV inhibitory activity ([1]; replicate 2, sheet S2F): 32.7776 | DPP-IV inhibitory activity ([1]; replicate 3, sheet S2F): 32.9911 | IC50 ([1]; Table S3, read-out: IC50): 4130 µM

C[C@@H](O)[C@H](NC(=O)[C@@H](N)Cc1ccc(O)cc1)C(=O)NCC(=O)N[C@@H](CC(=O)O)C(=O)O [YTGD] (H-YTGD-OH)
Kd ([3]; SPR, Table S3, read-out: KD values): 100 µM | DPP-IV inhibitory activity ([1]; replicate 1, sheet S2F): 20.1405 | DPP-IV inhibitory activity ([1]; replicate 2, sheet S2F): 15.5931 | DPP-IV inhibitory activity ([1]; replicate 3, sheet S2F): 21.6532 | IC50 ([1]; Table S3, read-out: IC50): 320 µM

FLQ (peptide)
IC50 of inhibition of DPP-IV activity in vitro [2]: 4130 µM

PSSQQ (peptide)
IC50 of inhibition of DPP-IV activity in vitro [2]: 730 µM

CC(C)C[C@H](NC(=O)[C@H](CCC(N)=O)NC(=O)[C@@H](N)Cc1ccccc1)C(=O)O [FQL] (H-Phe-Gln-Leu-OH)
DPP-IV inhibitory activity ([1]; replicate 1, sheet S2F): 25.4694 | DPP-IV inhibitory activity ([1]; replicate 2, sheet S2F): 22.9016 | DPP-IV inhibitory activity ([1]; replicate 3, sheet S2F): 15.9024 | IC50 ([1]; Table S3, read-out: IC50): 970 µM

YTPHW [YTPHW]
DPP-IV inhibitory activity ([1]; replicate 1, […]): 18.6094 | DPP-IV inhibitory activity ([1]; replicate 2, […]): 9.79 | DPP-IV inhibitory activity ([1]; replicate 3, […]): 21.0526 | IC50 ([1]; Table S3, read-out: IC50): 7110 µM

YQL (peptide)
IC50 of inhibition of DPP-IV activity in vitro [2]: 280 µM

WIAVK [WIAVK]
IC50 [1]: 600 µM | DPP-IV inhibitory activity ([1]; replicate 1, […]): 55.8181 | DPP-IV inhibitory activity ([1]; replicate 2, […]): 53.6066 | DPP-IV inhibitory activity ([1]; replicate 3, […]): 51.0205

FDGEL [FDGEL]
IC50 [1]: 45100 µM | DPP-IV inhibitory activity ([1]; replicate 1, […]): 28.637 | DPP-IV inhibitory activity ([1]; replicate 2, […]): 26.7775 | DPP-IV inhibitory activity ([1]; replicate 3, […]): 19.1292

N[C@@H](Cc1c[nH]c2ccccc12)C(=O)N[C@@H](CC(=O)O)C(=O)N[C@@H](CO)C(=O)N[C@@H](Cc1ccc(O)cc1)C(=O)O [WDSY] (H-WDSY-OH)
DPP-IV inhibitory activity ([1]; replicate 1, sheet S2F): 82.2499 | DPP-IV inhibitory activity ([1]; replicate 2, sheet S2F): 85.4257 | DPP-IV inhibitory activity ([1]; replicate 3, sheet S2F): 81.38 | IC50 ([1]; Table S3, read-out: IC50): 630 µM

CC(C)C[C@H](NC(=O)[C@H](CCC(N)=O)NC(=O)[C@@H](N)Cc1ccc(O)cc1)C(=O)O [YQL] (H-Tyr-Gln-Leu-OH)
DPP-IV inhibitory activity ([1]; replicate 1, […]): 20.7988 | DPP-IV inhibitory activity ([1]; replicate 2, […]): 21.5571 | DPP-IV inhibitory activity ([1]; replicate 3, […]): 29.5286 | IC50 ([1]; Table S3, read-out: IC50): 280 µM

WLE (peptide)
IC50 of inhibition of DPP-IV activity in vitro [2]: 2400 µM

FNVDSE [FNVDSE]
IC50 [1]: 84000 µM | DPP-IV inhibitory activity ([1]; replicate 1, […]): 14.7737 | DPP-IV inhibitory activity ([1]; replicate 2, […]): 13.6123 | DPP-IV inhibitory activity ([1]; replicate 3, […]): 13.4568

VFTPQ [VFTPQ]
IC50 [1]: 18500 µM | DPP-IV inhibitory activity ([1]; replicate 1, […]): 17.5527 | DPP-IV inhibitory activity ([1]; replicate 2, […]): 15.1374 | DPP-IV inhibitory activity ([1]; replicate 3, […]): 15.1911

LLY (peptide)
IC50 of inhibition of DPP-IV activity in vitro [2]: 830 µM

FNPRG [FNPRG]
IC50 [1]: 40500 µM | DPP-IV inhibitory activity ([1]; replicate 1, […]): 47.4625 | DPP-IV inhibitory activity ([1]; replicate 2, […]): 43.5702 | DPP-IV inhibitory activity ([1]; replicate 3, […]): 43.4293

PQNHA [PQNHA]
IC50 [1]: 24600 µM | DPP-IV inhibitory activity ([1]; replicate 1, […]): 27.665 | DPP-IV inhibitory activity ([1]; replicate 2, […]): 17.6559 | DPP-IV inhibitory activity ([1]; replicate 3, […]): 16.9893

CC(C)C[C@H](N)C(=O)N[C@@H](CC(N)=O)C(=O)N[C@@H](C)C(=O)N1CCC[C@H]1C(=O)O [LNAP] (H-LNAP-OH)
DPP-IV inhibitory activity ([1]; replicate 1, sheet S2F): 13.9411 | DPP-IV inhibitory activity ([1]; replicate 2, sheet S2F): 16.0533 | DPP-IV inhibitory activity ([1]; replicate 3, sheet S2F): 12.0865 | IC50 ([1]; Table S3, read-out: IC50): 590 µM

FQL (peptide)
IC50 of inhibition of DPP-IV activity in vitro [2]: 970 µM

B1: PQNHA (peptide)
peptide: PQNHA
IC50 of inhibition of DPP-IV activity in vitro [2]: 24600 µM

B2: WDSY (peptide)
peptide: WDSY
IC50 of inhibition of DPP-IV activity in vitro [2]: 630 µM

B3: YQLM (peptide)
peptide: YQLM
IC50 of inhibition of DPP-IV activity in vitro [2]: 650 µM

B4: VAMP (peptide)
peptide: VAMP
IC50 of inhibition of DPP-IV activity in vitro [2]: 1 µM

B5: YSYA (peptide)
peptide: YSYA
IC50 of inhibition of DPP-IV activity in vitro [2]: 410 µM

B6: FDGEL (peptide)
peptide: FDGEL
IC50 of inhibition of DPP-IV activity in vitro [2]: 45100 µM

B7: VADW (peptide)
peptide: VADW
IC50 of inhibition of DPP-IV activity in vitro [2]: 350 µM

B8: YNLP (peptide)
peptide: YNLP
IC50 of inhibition of DPP-IV activity in vitro [2]: 510 µM

B9: FPQS (peptide)
peptide: FPQS
IC50 of inhibition of DPP-IV activity in vitro [2]: 350 µM

B10: YTGD (peptide)
peptide: YTGD
IC50 of inhibition of DPP-IV activity in vitro [2]: 320 µM

B11: FNVDSE (peptide)
peptide: FNVDSE
IC50 of inhibition of DPP-IV activity in vitro [2]: 84000 µM

B12: LNAP (peptide)
peptide: LNAP
IC50 of inhibition of DPP-IV activity in vitro [2]: 590 µM

B13: VFTPQ (peptide)
peptide: VFTPQ
IC50 of inhibition of DPP-IV activity in vitro [2]: 18500 µM

B14: WNVN (peptide)
peptide: WNVN
IC50 of inhibition of DPP-IV activity in vitro [2]: 150 µM

B15: YTPHW (peptide)
peptide: YTPHW
IC50 of inhibition of DPP-IV activity in vitro [2]: 7110 µM

B16: FNPRG (peptide)
peptide: FNPRG
IC50 of inhibition of DPP-IV activity in vitro [2]: 40500 µM

B17: WIAVK (peptide)
peptide: WIAVK
IC50 of inhibition of DPP-IV activity in vitro [2]: 600 µM
